Where a name gives a salt, the structure may show the parent alone. Read-outs that look alike come from different tables or passages of the source.
Tests used:
human NK2 receptor = target: T1, human NK2 receptor (Homo sapiens, UniProt P21452); experiment: Test for binding to human NK2 receptor
T1 construct: expressed in transfected cells; host or cells: COS cells
T1 sequence (P21452 1-398): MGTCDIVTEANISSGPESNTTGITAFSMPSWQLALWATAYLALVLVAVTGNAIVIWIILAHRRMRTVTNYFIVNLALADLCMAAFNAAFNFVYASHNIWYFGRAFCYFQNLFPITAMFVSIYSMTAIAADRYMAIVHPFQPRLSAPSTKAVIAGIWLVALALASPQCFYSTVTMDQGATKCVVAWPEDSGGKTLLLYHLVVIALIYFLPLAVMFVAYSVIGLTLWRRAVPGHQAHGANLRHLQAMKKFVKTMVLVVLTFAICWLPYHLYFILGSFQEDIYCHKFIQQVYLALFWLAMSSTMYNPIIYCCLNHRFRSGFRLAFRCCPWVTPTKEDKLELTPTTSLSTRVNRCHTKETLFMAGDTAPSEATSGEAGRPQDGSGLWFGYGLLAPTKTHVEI
Procedure, shortened: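 Radioligand binding with [^3H]SR 48968 on cryopreserved COS cells expressing human NK2 receptor (5.0×10^5 cells/mL), in 50 mM Tris-HCl pH 7.4 with BSA, MnCl2 and protease inhibitors. Bound label collected on PEI-treated GF/B filters, counted by liquid scintillation; Ki derived from IC50 and radioligand Kd.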

human M3 receptor = target: T2, human M3 receptor (Homo sapiens, UniProt P20309); experiment: Test for binding to human M3 receptor
T2 construct: expressed in transfected cells; host or cells: CHO cells
Procedure, shortened: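 CHO-cell crude membranes expressing human M3 were incubated with [N-methyl-3H]-(−)-scopolamine methyl chloride in 50 mM Tris-HCl, 0.5 mM EDTA, pH 7.4, for 60 min at room temperature. Bound ligand was collected on PEI-pretreated glass-fibre filters and counted by liquid scintillation. Ki was calculated from IC50 and the radioligand Kd.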

neurokinin NK2 receptor = target: T3, neurokinin NK2 receptor (Cavia porcellus, UniProt Q64077); experiment: Effect of suppressing neurokinin A-induced airway contraction (in vivo, intratracheal administration); design: species or system guinea pig; details: guinea pig; guinea pigs, intratracheal administration 60 minutes before 4 μg/kg i.v. NKA; AUC of increase in airway pressure over 10 minutes; read-out: ID50 (the source's name)
T3 construct: Using healthy guinea pigs (body weight, 350 to 550 g; Hartley male guinea pigs); from tissue; host or cells: live anaesthetised Hartley male guinea pigs (airway, in vivo)
T3 sequence (Q64077 1-402): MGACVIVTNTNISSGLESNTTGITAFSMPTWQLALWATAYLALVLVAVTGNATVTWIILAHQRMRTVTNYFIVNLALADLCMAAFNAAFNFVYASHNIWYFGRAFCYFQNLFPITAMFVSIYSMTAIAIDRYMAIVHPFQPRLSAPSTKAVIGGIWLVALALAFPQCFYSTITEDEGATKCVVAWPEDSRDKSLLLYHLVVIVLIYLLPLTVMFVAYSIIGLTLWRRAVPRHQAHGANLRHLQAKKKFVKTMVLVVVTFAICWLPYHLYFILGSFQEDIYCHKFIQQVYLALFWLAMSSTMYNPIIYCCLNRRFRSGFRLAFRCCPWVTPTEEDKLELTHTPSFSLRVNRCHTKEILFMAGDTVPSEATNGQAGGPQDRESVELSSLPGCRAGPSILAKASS
Method: Using healthy guinea pigs (body weight, 350 to 550 g; Hartley male guinea pigs), the effect of suppressing airway contraction induced by neurokinin A (NKA), which is an NK2 receptor agonist, was examined by a modified method of Konzett-Roessler (Naunyn-Schmiedebergs Arch. Exp. Pathol. Pharmakol. 195, 71 [1940]) using airway pressure as an indicator.
A tracheal cannula and a venous cannula were attached to a guinea pig anesthetized with pentobarbital (50 mg/mL solution, 0.40 to 0.50 mL/body, subcutaneous administration). An arterial cannula filled with heparin-containing physiological saline (100 U/mL) was further attached, and blood pressure and heart rate were monitored via an amplifier and an instantaneous heart rate meter. Subsequently, gallamine (20 mg/body, intravenous administration) was administered to terminate spontaneous breathing, and 10 mL/kg of positive pressure breathing (Ugo-Basile Biological Research Apparatus, Cat. No. 7025) was rapidly performed at 60 times/min. The airway pressure during artificial breathing was detected with a pressure transducer (TP-200T or TP-400T; Nihon Kohden Corporation) attached to a side branch of the tracheal cannula, amplified (AP-601G; Nihon Kohden Corporation), and recorded in a recorder. After the airway pressure, blood pressure, and heart rate were stabilized, 4 μg/kg of NKA was intravenously administered from the venous cannula to induce airway contraction, and the airway pressure was measured for the following 10 minutes.
The test substance was dissolved in a 5% glucose solution, and a 0.5 mL/kg solution was intratracheally administered with an intratracheal administration apparatus (model 1A-1B; Penn-Century, Inc.) 60 minutes before stimulation with NKA.
The AUC of increase in the airway pressure over 10 minutes after administration of NKA was determined as the intensity of NKA-induced airway contraction and calculated as an ID50 value from the inhibition rate based on the value of the control group (5% glucose solution intratracheal administration group).

[1] = COS cells expressing human NK2 receptor, [3H]SR 48968 1 nM, Ki from IC50 and Kd, read-out: Ki
[2] = CHO cells expressing human M3 receptor, [N-methyl-3H]-(-)-Scopolamine methyl chloride 0.5 nM, Ki from IC50 and Kd, read-out: Ki

T2 sequence (P20309 whole entry): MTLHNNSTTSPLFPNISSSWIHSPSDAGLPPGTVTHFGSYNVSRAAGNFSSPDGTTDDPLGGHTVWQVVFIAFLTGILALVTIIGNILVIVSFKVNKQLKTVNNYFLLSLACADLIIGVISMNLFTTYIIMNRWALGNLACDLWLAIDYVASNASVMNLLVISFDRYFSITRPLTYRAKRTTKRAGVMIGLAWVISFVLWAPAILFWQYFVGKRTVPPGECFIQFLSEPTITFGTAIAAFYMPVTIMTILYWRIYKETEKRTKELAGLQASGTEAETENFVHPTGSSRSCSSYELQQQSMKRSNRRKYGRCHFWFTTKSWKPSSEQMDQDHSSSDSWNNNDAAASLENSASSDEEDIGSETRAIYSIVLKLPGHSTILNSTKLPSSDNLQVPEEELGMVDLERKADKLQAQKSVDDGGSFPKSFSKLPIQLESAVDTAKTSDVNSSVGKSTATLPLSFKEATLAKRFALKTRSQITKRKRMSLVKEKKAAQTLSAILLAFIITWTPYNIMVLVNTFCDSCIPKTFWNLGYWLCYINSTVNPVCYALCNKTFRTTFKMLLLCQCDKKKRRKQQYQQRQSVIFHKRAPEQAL

SMILES	Ki (human NK2 receptor; [1])	Ki (human M3 receptor; [2])	ED50 (neurokinin NK2 receptor)	Ki (human NK2 receptor)	Ki (human M3 receptor)
CN(CCN1CCC(OC(=O)Nc2ccccc2-c2ccccc2)CC1)C(=O)CCOCCNc1ccc(C(=O)N(C)CCCN(C)C(=O)CO[C@H]2Cc3ccccc3C23CCN(CC[C@@]2(c4ccc(F)cc4)CN(C(=O)c4cc(C(F)(F)F)cc(C(F)(F)F)c4)CO2)CC3)cc1 [Example 29, 1-{2-[{3-[2-({4-[{3-[({[(2S)-1′-{2-[(5R)-3-[3,5-Bis(trifluoromethyl)benzoyl]-5-(4-fluorophenyl)-1,3-oxazolidin-5-yl]ethyl}-2,3-dihydrospiro[indene-1,4′-piperidin]-2-yl]oxy}acetyl)(methy)amino]propyl}(methyl)carbamoyl]phenyl}amino)ethoxy]propanoyl}(methyl)amino]ethyl}piperidin-4-yl biphenyl-2-ylcarbamate trihydrochloride]	0.76 nM	1.7 nM	0.0438 mg/kg		
Cc1cc(NCCCCCC(=O)N(C)CCN2CCC(OC(=O)Nc3ccccc3-c3ccccc3)CC2)sc1C(=O)N(C)CCCN(C)C(=O)CO[C@H]1Cc2ccccc2C12CCN(CC[C@@]1(c3ccc(F)cc3)CN(C(=O)c3cc(C(F)(F)F)cc(C(F)(F)F)c3)CO1)CC2 [Example 30, 1-(2-{[6-({5-[{3-[({[(2S)-1′-{2-[(5R)-3-[3,5-Bis(trifluoromethyl)benzoyl]-5-(4-fluorophenyl)-1,3-oxazolidin-5-yl]ethyl}-2,3-dihydrospiro[indene-1,4′-piperidin]-2-yl]oxy}acetyl)(methyl)amino]propyl}(methyl)carbamoyl]-4-methyl-2-thienyl}amino)hexanoyl](methyl)amino}ethyl)piperidin-4-yl biphenyl-2-ylcarbamate trihydrochloride]			0.0632 mg/kg	0.71 nM	0.62 nM
CN(CCN1CCC(OC(=O)Nc2ccccc2-c2ccccc2)CC1)C(=O)CCCCNc1ccc(C(=O)N(C)CCCN(C)C(=O)CO[C@H]2Cc3ccccc3C23CCN(CC[C@@]2(c4ccc(F)cc4)CN(C(=O)c4cc(C(F)(F)F)cc(C(F)(F)F)c4)CO2)CC3)cc1 [Example 32, 1-(2-{[5-({4-[{3-[({[(2S)-1′-{2-[(5R)-3-[3,5-Bis(trifluoromethyl)benzoyl]-5-(4-fluorophenyl)-1,3-oxazolidin-5-yl]ethyl}-2,3-dihydrospiro[indene-1,4′-piperidin]-2-yl]oxy}acetyl)(methyl)amino]propyl}(methyl)carbamoyl]phenyl}amino)pentanoyl](methyl)amino}ethyl)piperidin-4-yl biphenyl-2-ylcarbamate trihydrochloride]			0.0356 mg/kg	0.74 nM	1.1 nM
CN(CCN1CCC(OC(=O)Nc2ccccc2-c2ccccc2)CC1)C(=O)CCCNc1ccc(C(=O)N(C)CCCN(C)C(=O)CO[C@H]2Cc3ccccc3C23CCN(CC[C@@]2(c4ccc(F)cc4)CN(C(=O)c4cc(C(F)(F)F)cc(C(F)(F)F)c4)CO2)CC3)cc1 [Example 34, 1-(2-{[4-({4-[{3-[({[(2S)-1′-{2-[(5R)-3-[3,5-Bis(trifluoromethyl)benzoyl]-5-(4-fluorophenyl)-1,3-oxazolidin-5-yl]ethyl}-2,3-dihydrospiro[indene-1,4′-piperidin]-2-yl]oxy}acetyl)(methyl)amino]propyl}(methyl)carbamoyl]phenyl}amino)butanoyl](methyl)amino}ethyl)piperidin-4-yl biphenyl-2-ylcarbamate trihydrochloride]			0.03 mg/kg	0.54 nM	1.5 nM
CN(CCN1CCC(OC(=O)Nc2ccccc2-c2ccccc2)CC1)C(=O)CCCN(C)c1ccc(C(=O)N(C)CCCN(C)C(=O)CO[C@H]2Cc3ccccc3C23CCN(CC[C@@]2(c4ccc(F)cc4)CN(C(=O)c4cc(C(F)(F)F)cc(C(F)(F)F)c4)CO2)CC3)cc1 [Example 36, 1-{2-[{4-[{4-[{3-[({[(2S)-1′-{2-[(5R)-3-[3,5-Bis(trifluoromethyl)benzoyl]-5-(4-fluorophenyl)-1,3-oxazolidin-5-yl]ethyl}-2,3-dihydrospiro[indene-1,4′-piperidin]-2-yl]oxy}acetyl)(methyl)amino]propyl}(methyl)carbamoyl]phenyl}(methyl)amino]butanoyl}(methyl)amino]ethyl}piperidin-4-yl biphenyl-2-ylcarbamate trihydrochloride]			0.0168 mg/kg	0.96 nM	1.8 nM
CN(CCN1CCC(OC(=O)Nc2ccccc2-c2ccccc2)CC1)C(=O)CCCCN(C)c1ccc(C(=O)N(C)CCCN(C)C(=O)CO[C@H]2Cc3ccccc3C23CCN(CC[C@@]2(c4ccc(F)cc4)CN(C(=O)c4cc(C(F)(F)F)cc(C(F)(F)F)c4)CO2)CC3)cc1 [Example 38, 1-{2-[{5-[{4-[{3-[({[(2S)-1′-{2-[(5R)-3-[3,5-Bis(trifluoromethyl)benzoyl]-5-(4-fluorophenyl)-1,3-oxazolidin-5-yl]ethyl}-2,3-dihydrospiro[indene-1,4′-piperidin]-2-yl]oxy}acetyl)(methy)amino]propyl}(methyl)carbamoyl]phenyl}(methyl)amino]pentanoyl}(methyl)amino]ethyl}piperidin-4-yl biphenyl-2-ylcarbamate trihydrochloride]	0.89 nM	1.8 nM	0.0253 mg/kg		
CN(CCN1CCC(OC(=O)Nc2ccccc2-c2ccccc2)CC1)C(=O)CCCCCCN(C)c1ccc(C(=O)N(C)CCCN(C)C(=O)CO[C@H]2Cc3ccccc3C23CCN(CC[C@@]2(c4ccc(F)cc4)CN(C(=O)c4cc(C(F)(F)F)cc(C(F)(F)F)c4)CO2)CC3)cc1 [Example 40, 1-{2-[{7-[{4-[{3-[({[(2S)-1′-{2-[(5R)-3-[3,5-Bis(trifluoromethyl)benzoyl]-5-(4-fluorophenyl)-1,3-oxazolidin-5-yl]ethyl}-2,3-dihydrospiro[indene-1,4′-piperidin]-2-yl]oxy}acetyl)(methyl)amino]propyl}(methyl)carbamoyl]phenyl}(methyl)amino]heptanoyl}(methyl)amino]ethyl}piperidin-4-yl biphenyl-2-ylcarbamate trihydrochloride]			0.0573 mg/kg	0.83 nM	2 nM
CN(CCN1CCC(OC(=O)Nc2ccccc2-c2ccccc2)CC1)C(=O)CCCCCNc1cccc(C(=O)N(C)CCCN(C)C(=O)CO[C@H]2Cc3ccccc3C23CCN(CC[C@@]2(c4ccc(F)cc4)CN(C(=O)c4cc(C(F)(F)F)cc(C(F)(F)F)c4)CO2)CC3)c1 [Example 43, 1-(2-{[6-({3-[{3-[({[(2S)-1′-{2-[(5R)-3-[3,5-Bis(trifluoromethyl)benzoyl]-5-(4-fluorophenyl)-1,3-oxazolidin-5-yl]ethyl}-2,3-dihydrospiro[indene-1,4′-piperidin]-2-yl]oxy}acetyl)(methyl)amino]propyl}(methyl)carbamoyl]phenyl}amino)hexanoyl](methyl)amino}ethyl)piperidin-4-yl biphenyl-2-ylcarbamate trihydrochloride]			0.0241 mg/kg	1.3 nM	2.6 nM

— US8476253B2, “Amide derivative” (Daiichi Sankyo Company, Limited, priority 2009, dated 2013)
